# Target: T1, JAK2 (JH1domain-catalytic, Y1007F,Y1008F) kinase (Homo sapiens, UniProt O60674, Y1007F/Y1008F)
# T1 construct: JAK2 (JH1domain-catalytic, Y1007F,Y1008F) kinase was expressed as N-terminal fusion; made in house; host or cells: transiently transfected HEK293 cells
# Test: JAK2 JH1 Domain Binding Assay
# Conditions: qPCR readout
# T1 sequence (O60674 849-1124 Y1007F/Y1008F limits assumed): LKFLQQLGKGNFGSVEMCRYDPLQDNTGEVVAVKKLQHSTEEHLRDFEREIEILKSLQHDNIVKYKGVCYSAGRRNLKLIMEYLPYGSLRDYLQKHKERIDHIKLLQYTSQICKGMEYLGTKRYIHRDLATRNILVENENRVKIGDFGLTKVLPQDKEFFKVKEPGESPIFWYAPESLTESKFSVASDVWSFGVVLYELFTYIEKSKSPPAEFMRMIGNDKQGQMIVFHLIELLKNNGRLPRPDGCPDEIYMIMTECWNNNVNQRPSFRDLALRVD
row,SMILES,Kd
1,"CN1CC[C@H](n2nc(Nc3nc4ncc(Oc5cnn6ccnc6c5)c(Cl)c4n3C)cc2C(C)(C)C)C1 [Example I-35, (S)—N-(5-(tert-butyl)-1-(1-methylpyrrolidin-3-yl)-1H-pyrazol-3-yl)-7-chloro-6-(imidazo[1,2-b]pyridazin-7-yloxy)-1-methyl-1H-imidazo[4,5-b]pyridin-2-amine]",10 to 50 nM
2,"CN1CC[C@@H](n2nc(Nc3nc4ncc(Oc5cnn6ccnc6c5)c(Cl)c4n3C)cc2C(C)(C)C)C1 [Example I-36, (R)—N-(5-(tert-butyl)-1-(1-methylpyrrolidin-3-yl)-1H-pyrazol-3-yl)-7-chloro-6-(imidazo[1,2-b]pyridazin-7-yloxy)-1-methyl-1H-imidazo[4,5-b]pyridin-2-amine]",50 to 1000 nM
3,"CN1CC[C@H](n2nc(Nc3nc4ncc(Oc5cnc6scnc6c5)c(C(F)F)c4n3C)cc2C(C)(C)C)C1 [Example I-39, (S)—N-(5-(tert-butyl)-1-(1-methylpyrrolidin-3-yl)-1H-pyrazol-3-yl)-7-(difluoromethyl)-1-methyl-6-(thiazolo[5,4-b]pyridin-6-yloxy)-1H-imidazo[4,5-b]pyridin-2-amine]",10 to 50 nM
4,"CN1CC[C@@H](n2nc(Nc3nc4ncc(Oc5cnc6scnc6c5)c(C(F)F)c4n3C)cc2C(C)(C)C)C1 [Example I-40, (R)—N-(5-(tert-butyl)-1-(1-methylpyrrolidin-3-yl)-1H-pyrazol-3-yl)-7-(difluoromethyl)-1-methyl-6-(thiazolo[5,4-b]pyridin-6-yloxy)-1H-imidazo[4,5-b]pyridin-2-amine]",10 to 50 nM
5,"Cn1c(Nc2cc(C(C)(C)C)n(C3CC4(COC4)C3)n2)nc2ncc(Oc3cnc4ccnn4c3)c(Cl)c21 [Example I-42, N-(5-(tert-butyl)-1-(2-oxaspiro[3.3]heptan-6-yl)-1H-pyrazol-3-yl)-7-chloro-1-methyl-6-(pyrazolo[1,5-a]pyrimidin-6-yloxy)-1H-imidazo[4,5-b]pyridin-2-amine]",10 to 50 nM
6,"Cn1c(Nc2cc(C(C)(C)C)n([C@H]3CCN(CCF)C3)n2)nc2ncc(Oc3cnn4ccncc34)c(C(F)F)c21 [Example I-43, (S)—N-(5-(tert-butyl)-1-(1-(2-fluoroethyl)pyrrolidin-3-yl)-1H-pyrazol-3-yl)-7-(difluoromethyl)-1-methyl-6-(pyrazolo[1,5-a]pyrazin-3-yloxy)-1H-imidazo[4,5-b]pyridin-2-amine]",10 to 50 nM
7,"Cn1c(Nc2cc(C(C)(C)C)n([C@@H]3CCN(CCF)C3)n2)nc2ncc(Oc3cnn4ccncc34)c(C(F)F)c21 [Example I-44, (R)—N-(5-(tert-butyl)-1-(1-(2-fluoroethyl)pyrrolidin-3-yl)-1H-pyrazol-3-yl)-7-(difluoromethyl)-1-methyl-6-(pyrazolo[1,5-a]pyrazin-3-yloxy)-1H-imidazo[4,5-b]pyridin-2-amine]",50 to 1000 nM
8,"COc1c(Oc2cnc3sccc3c2)cnc2nc(Nc3cc(C(C)(C)C)n([C@H]4CCN(C)C4)n3)n(C)c12 [Example I-45, (S)—N-(5-(tert-butyl)-1-(1-methylpyrrolidin-3-yl)-1H-pyrazol-3-yl)-7-methoxy-1-methyl-6-(thieno[2,3-b]pyridin-5-yloxy)-1H-imidazo[4,5-b]pyridin-2-amine]",10 to 50 nM
9,"COc1c(Oc2cnc3sccc3c2)cnc2nc(Nc3cc(C(C)(C)C)n([C@@H]4CCN(C)C4)n3)n(C)c12 [Example I-46, (R)—N-(5-(tert-butyl)-1-(1-methylpyrrolidin-3-yl)-1H-pyrazol-3-yl)-7-methoxy-1-methyl-6-(thieno[2,3-b]pyridin-5-yloxy)-1H-imidazo[4,5-b]pyridin-2-amine]",50 to 1000 nM
10,"Cn1c(Nc2cc(C(C)(C)C)n(C3CC4(COC4)C3)n2)nc2ncc(Oc3cnn4ccncc34)c(Cl)c21 [Example I-49, N-(5-(tert-butyl)-1-(2-oxaspiro[3.3]heptan-6-yl)-1H-pyrazol-3-yl)-7-chloro-1-methyl-6-(pyrazolo[1,5-a]pyrazin-3-yloxy)-1H-imidazo[4,5-b]pyridin-2-amine]",< 10 nM
11,"COc1c(Oc2cnn3ccncc23)cnc2nc(Nc3cc(C(C)(C)C)n([C@H]4CCN(CCF)C4)n3)n(C)c12 [Example I-50, (S)—N-(5-(tert-butyl)-1-(1-(2-fluoroethyl)pyrrolidin-3-yl)-1H-pyrazol-3-yl)-7-methoxy-1-methyl-6-(pyrazolo[1,5-a]pyrazin-3-yloxy)-1H-imidazo[4,5-b]pyridin-2-amine]",10 to 50 nM
12,"COCCN1CC[C@H](n2nc(Nc3nc4ncc(Oc5cnn6ccncc56)c(C(F)F)c4n3C)cc2C(C)(C)C)C1 [Example I-51, (S)—N-(5-(tert-butyl)-1-(1-(2-methoxyethyl)pyrrolidin-3-yl)-1H-pyrazol-3-yl)-7-(difluoromethyl)-1-methyl-6-(pyrazolo[1,5-a]pyrazin-3-yloxy)-1H-imidazo[4,5-b]pyridin-2-amine]",10 to 50 nM
13,"Cn1c(Nc2cc(C(C)(C)C)n(C3CC4(COC4)C3)n2)nc2ncc(Oc3cnn4ccncc34)c(C(F)F)c21 [Example I-53, N-(5-(tert-butyl)-1-(2-oxaspiro[3.3]heptan-6-yl)-1H-pyrazol-3-yl)-7-(difluoromethyl)-1-methyl-6-(pyrazolo[1,5-a]pyrazin-3-yloxy)-1H-imidazo[4,5-b]pyridin-2-amine]",< 10 nM

# Results, then the molecule that gave them:
row,Kd,SMILES
1,10 to 50 nM,"Cn1c(Nc2cc(C(C)(C)C)n(CC#N)n2)nc2ncc(Oc3cnn4ccncc34)c(Cl)c21 [Example I-54, 2-(5-(tert-butyl)-3-((7-chloro-1-methyl-6-(pyrazolo[1,5-a]pyrazin-3-yloxy)-1H-imidazo[4,5-b]pyridin-2-yl)amino)-1H-pyrazol-1-yl)acetonitrile]"
2,< 10 nM,"Cn1c(Nc2cc(C(C)(C)C)n([C@H]3C[C@H](O)C3)n2)nc2ncc(Oc3cnn4ccncc34)c(Cl)c21 [Example I-55, trans-3-(5-(tert-butyl)-3-((7-chloro-1-methyl-6-(pyrazolo[1,5-a]pyrazin-3-yloxy)-1H-imidazo[4,5-b]pyridin-2-yl)amino)-1H-pyrazol-1-yl)cyclobutan-1-ol]"
3,< 10 nM,"Cn1cc(C2CC2)cc(Nc2nc3ncc(Oc4cnn5ccncc45)c(Cl)c3n2C)c1=O [Example I-57, 3-((7-chloro-1-methyl-6-(pyrazolo[1,5-a]pyrazin-3-yloxy)-1H-imidazo[4,5-b]pyridin-2-yl)amino)-5-cyclopropyl-1-methylpyridin-2(1H)-one]"
4,< 10 nM,"COCCn1cc(C2CC2)cc(Nc2nc3ncc(Oc4cnn5ccncc45)c(OC)c3n2C)c1=O [Example I-58, 5-cyclopropyl-3-((7-methoxy-1-methyl-6-(pyrazolo[1,5-a]pyrazin-3-yloxy)-1H-imidazo[4,5-b]pyridin-2-yl)amino)-1-(2-methoxyethyl)pyridin-2(1H)-one]"
5,< 10 nM,"Cn1cc(C2CC2)cc(Nc2nc3ncc(Oc4cnn5ccncc45)c(C(F)F)c3n2C)c1=O [Example I-59, 5-cyclopropyl-3-((7-(difluoromethyl)-1-methyl-6-(pyrazolo[1,5-a]pyrazin-3-yloxy)-1H-imidazo[4,5-b]pyridin-2-yl)amino)-1-methylpyridin-2(1H)-one]"
6,< 10 nM,"Cn1c(Nc2cc(C(C)(C)C)n(CCC#N)n2)nc2ncc(Oc3cnn4ccncc34)c(Cl)c21 [Example I-61, 3-(5-(tert-butyl)-3-((7-chloro-1-methyl-6-(pyrazolo[1,5-a]pyrazin-3-yloxy)-1H-imidazo[4,5-b]pyridin-2-yl)amino)-1H-pyrazol-1-yl)propanenitrile]"
7,10 to 50 nM,"COc1c(Oc2cnn3ccncc23)cnc2nc(Nc3cc(C(C)(C)C)n([C@@H]4CCN(CCF)C4)n3)n(C)c12 [Example I-62, (R)—N-(5-(tert-butyl)-1-(1-(2-fluoroethyl)pyrrolidin-3-yl)-1H-pyrazol-3-yl)-7-methoxy-1-methyl-6-(pyrazolo[1,5-a]pyrazin-3-yloxy)-1H-imidazo[4,5-b]pyridin-2-amine]"
8,10 to 50 nM,"Cn1c(Nc2cc(C(C)(C)C)n(CC#N)n2)nc2ncc(Oc3cnn4ccncc34)c(C(F)F)c21 [Example I-63, 2-(5-(tert-butyl)-3-((7-(difluoromethyl)-1-methyl-6-(pyrazolo[1,5-a]pyrazin-3-yloxy)-1H-imidazo[4,5-b]pyridin-2-yl)amino)-1H-pyrazol-1-yl)acetonitrile]"
9,< 10 nM,"COc1c(Oc2cnn3ccncc23)cnc2nc(Nc3cc(C4CC4)cn(C)c3=O)n(C)c12 [Example I-64, 5-cyclopropyl-3-((7-methoxy-1-methyl-6-(pyrazolo[1,5-a]pyrazin-3-yloxy)-1H-imidazo[4,5-b]pyridin-2-yl)amino)-1-methylpyridin-2(1H)-one]"
10,< 10 nM,"Cn1c(Nc2cc(C3CC3)cn(CCO)c2=O)nc2ncc(Oc3cnn4ccncc34)c(Cl)c21 [Example I-65, 3-((7-chloro-1-methyl-6-(pyrazolo[1,5-a]pyrazin-3-yloxy)-1H-imidazo[4,5-b]pyridin-2-yl)amino)-5-cyclopropyl-1-(2-hydroxyethyl)pyridin-2(1H)-one]"
11,< 10 nM,"Cn1c(Nc2cc(C(C)(C)C)n([C@H]3CCO[C@@H]3CO)n2)nc2ncc(Oc3cnn4ccncc34)c(Cl)c21 [Example I-66, ((2S,3S)-3-(5-(tert-butyl)-3-((7-chloro-1-methyl-6-(pyrazolo[1,5-a]pyrazin-3-yloxy)-1H-imidazo[4,5-b]pyridin-2-yl)amino)-1H-pyrazol-1-yl)tetrahydrofuran-2-yl)methanol]"
12,< 10 nM,"COc1c(Oc2cnn3ccncc23)cnc2nc(Nc3cc(C4CC4)cn(C4CCOCC4)c3=O)n(C)c12 [Example I-67, 5-cyclopropyl-3-((7-methoxy-1-methyl-6-(pyrazolo[1,5-a]pyrazin-3-yloxy)-1H-imidazo[4,5-b]pyridin-2-yl)amino)-1-(tetrahydro-2H-pyran-4-yl)pyridin-2(1H)-one]"
13,< 10 nM,"Cn1c(Nc2cc(C3CC3)cn(C3CCOCC3)c2=O)nc2ncc(Oc3cnn4ccncc34)c(Cl)c21 [Example I-68, 3-((7-chloro-1-methyl-6-(pyrazolo[1,5-a]pyrazin-3-yloxy)-1H-imidazo[4,5-b]pyridin-2-yl)amino)-5-cyclopropyl-1-(tetrahydro-2H-pyran-4-yl)pyridin-2(1H)-one]"

# Reference: patent US12043632B2, “6-heteroaryloxy benzimidazoles and azabenzimidazoles as JAK2 inhibitors” (Ajax Therapeutics, Inc., priority 2020, dated 2024)
